From patent publication US10131652B2, “Pyrimidinyloxy benzene derivatives as herbicides” (E. I. DU PONT DE NEMOURS AND COMPANY, priority 2014, dated 2018)

Experiments:
Assay type in all cases: in vivo
[1] = system: barnyardgrass (Echinochloa crus-galli); assay: Test D pre-/postemergence plant response; details: Postemergence; for Barnyardgrass plant response rating: scale 0 to 100 (0 no effect, 100 complete control); for Plant response rating, Barnyardgrass: scale 0 to 100, 0 no effect, 100 complete control
In short: (§1)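 Ratings were visual, 0 = no effect to 100 = complete control, taken against untreated controls after 13 to 15 days in a greenhouse. Chemicals, formulated in non-phytotoxic surfactant-containing solvent, went onto soil (loam/sand) at planting for preemergence, or onto 1- to 4-leaf plants (2–18 cm) for postemergence.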

[2] = system: galium (catchweed bedstraw, Galium aparine); assay: Test D pre-/postemergence plant response; details: Postemergence; for Galium plant response rating: scale 0 to 100 (0 no effect, 100 complete control); for Plant response rating, Galium: scale 0 to 100, 0 no effect, 100 complete control
In short: as §1

[3] = system: Italian ryegrass (Lolium multiflorum); assay: Test D pre-/postemergence plant response; details: Postemergence
In short: as §1

[4] = system: giant foxtail (Setaria faberii); assay: Test D pre-/postemergence plant response; details: Postemergence; for Foxtail, Giant plant response rating: scale 0 to 100 (0 no effect, 100 complete control); for Plant response rating, Foxtail, Giant: scale 0 to 100, 0 no effect, 100 complete control
In short: as §1

[5] = system: ragweed (common ragweed, Ambrosia elatior); assay: Test D pre-/postemergence plant response; details: Postemergence
In short: as §1

corn (Zea mays) [6] = assay: Test D pre-/postemergence plant response; details: Postemergence; for Corn plant response rating: scale 0 to 100 (0 no effect, 100 complete control); for Plant response rating, Corn: scale 0 to 100, 0 no effect, 100 complete control
In short: as §1

[7] = system: lambsquarters (Chenopodium album); assay: Test D pre-/postemergence plant response; details: Postemergence
In short: as §1

[8] = system: blackgrass (Alopecurus myosuroides); assay: Test D pre-/postemergence plant response; details: Postemergence; for Blackgrass plant response rating: scale 0 to 100 (0 no effect, 100 complete control); for Plant response rating, Blackgrass: scale 0 to 100, 0 no effect, 100 complete control
In short: as §1

[9] = system: waterhemp (common waterhemp, Amaranthus rudis); assay: Test D pre-/postemergence plant response; details: Postemergence
In short: as §1

[10] = system: pigweed (Amaranthus retroflexus); assay: Test D pre-/postemergence plant response; details: Postemergence
In short: as §1

[11] = system: morningglory (Ipomoea coccinea); assay: Test D pre-/postemergence plant response; details: Postemergence
In short: as §1

[12] = system: barnyardgrass (Echinochloa crus-galli); assay: Test B pre-/postemergence plant response
In short: (§2)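 Visual injury scores on a 0–100 scale (100 = complete control) relative to untreated plants, taken about 10 days post-treatment in greenhouse. Treatments were a directed preemergence soil spray and a postemergence spray at one- to two-leaf stage, using surfactant-containing solvent formulation.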

[13] = system: wheat (Triticum aestivum); assay: Test B pre-/postemergence plant response
In short: as §2

[14] = system: giant foxtail (Setaria faberii); assay: Test B pre-/postemergence plant response
In short: as §2

corn (Zea mays) [15] = assay: Test B pre-/postemergence plant response
In short: as §2

[16] = system: pigweed (Amaranthus retroflexus); assay: Test B pre-/postemergence plant response
In short: as §2

[17] = 31 g ai/ha, scale 0 to 100 (0 no effect, 100 complete control)
[18] = 62 g ai/ha, scale 0 to 100, 0 no effect, 100 complete control
[19] = 125 g ai/ha, scale 0 to 100, 0 no effect, 100 complete control
[20] = 31 g ai/ha, Preemergence, 0 to 100 scale where 0 is no effect and 100 is complete control
[21] = 125 g ai/ha, postemergence, 0 to 100 scale, 0 no effect, 100 complete control
[22] = Postemergence, 31 g ai/ha, 0 to 100 scale (0 no effect, 100 complete control)
[23] = Preemergence, 125 g ai/ha, 0 to 100 scale (0 no effect, 100 complete control)
[24] = 16 g ai/ha, scale 0 to 100 (0 no effect, 100 complete control)
[25] = Postemergence, 500 g ai/ha, 0 to 100 scale (0 no effect, 100 complete control)
[26] = Preemergence, 125 g ai/ha, 0 to 100 scale where 0 is no effect and 100 is complete control
[27] = Preemergence, 500 g ai/ha, 0 to 100 scale where 0 is no effect and 100 is complete control

FCc1cc(-c2ccccc2Oc2ncc(Cl)cn2)on1 [Compound 224]
Plant response rating (scale 0 to 100), Barnyardgrass ([1]; 16 g ai/ha): 5 | Barnyardgrass plant response rating ([1]; 31 g ai/ha): 5 | Plant response rating, Barnyardgrass ([1]; 62 g ai/ha): 10 | Plant response rating, Barnyardgrass ([1]; 125 g ai/ha): 15 | Plant response rating (scale 0 to 100), Galium ([2]; 16 g ai/ha): 40 | Galium plant response rating ([2]; 31 g ai/ha): 50 | Plant response rating, Galium ([2]; 62 g ai/ha): 60 | Plant response rating, Galium ([2]; 125 g ai/ha): 60 | Plant response rating (scale 0 to 100), Ryegrass, Italian ([3]; 16 g ai/ha): 0 | Ryegrass, Italian plant response rating [3, 17]: 0 | Ryegrass, Italian plant response rating [3, 18]: 0 | Plant response rating, Ryegrass, Italian [3, 19]: 0 | Plant response rating (scale 0 to 100), Foxtail, Giant ([4]; 16 g ai/ha): 0 | Foxtail, Giant plant response rating ([4]; 31 g ai/ha): 5 | Plant response rating, Foxtail, Giant ([4]; 62 g ai/ha): 5 | Plant response rating, Foxtail, Giant ([4]; 125 g ai/ha): 40 | Plant response rating (scale 0 to 100), Ragweed ([5]; 16 g ai/ha): 30 | Ragweed plant response rating [5, 17]: 55 | Ragweed plant response rating [5, 18]: 55 | Plant response rating, Ragweed [5, 19]: 70 | Plant response rating (scale 0 to 100), Corn (corn (Zea mays) [6]; 16 g ai/ha): 0 | Corn plant response rating (corn (Zea mays) [6]; 31 g ai/ha): 5 | Plant response rating, Corn (corn (Zea mays) [6]; 62 g ai/ha): 5 | Plant response rating, Corn (corn (Zea mays) [6]; 125 g ai/ha): 5 | Plant response rating (scale 0 to 100), Lambsquarters ([7]; 16 g ai/ha): 55 | Lambsquarters plant response rating [7, 17]: 75 | Lambsquarters plant response rating [7, 18]: 80 | Plant response rating, Lambsquarters [7, 19]: 85 | Plant response rating (scale 0 to 100), Blackgrass ([8]; 16 g ai/ha): 0 | Blackgrass plant response rating ([8]; 31 g ai/ha): 0 | Plant response rating, Blackgrass ([8]; 62 g ai/ha): 5 | Plant response rating, Blackgrass ([8]; 125 g ai/ha): 0 | Plant response rating (scale 0 to 100), Waterhemp ([9]; 16 g ai/ha): 70 | Waterhemp plant response rating [9, 17]: 75 | Waterhemp plant response rating [9, 18]: 85 | Plant response rating, Waterhemp [9, 19]: 85 | Plant response rating (scale 0 to 100), Pigweed ([10]; 16 g ai/ha): 85 | Pigweed plant response rating [10, 17]: 85 | Pigweed plant response rating [10, 18]: 85 | Plant response rating, Pigweed [10, 19]: 90 | Plant response rating (scale 0 to 100), Morningglory ([11]; 16 g ai/ha): 15 | Morningglory plant response rating [11, 17]: 35 | Morningglory plant response rating [11, 18]: 35 | Plant response rating, Morningglory [11, 19]: 80 | Plant response rating, Barnyardgrass [12, 20]: 10 | Plant response rating, Barnyardgrass [12, 21]: 50 | Plant response rating, Barnyardgrass [12, 22]: 30 | Barnyardgrass plant response rating [12, 23]: 50 | Plant response rating, Wheat [13, 21]: 0 | Plant response rating, Wheat [13, 22]: 0 | Plant response rating, Foxtail, Giant [14, 20]: 40 | Plant response rating, Foxtail, Giant [14, 21]: 50 | Plant response rating, Foxtail, Giant [14, 22]: 20 | Foxtail, Giant plant response rating [14, 23]: 90 | Plant response rating, Corn (corn (Zea mays) [15]; [21]): 20 | Plant response rating, Corn (corn (Zea mays) [15]; [22]): 0 | Plant response rating, Pigweed [16, 20]: 90 | Plant response rating, Pigweed [16, 21]: 100 | Plant response rating, Pigweed [16, 22]: 70 | Pigweed plant response rating [16, 23]: 100

Cn1nnc(-c2ccccc2Oc2ncc(Br)cn2)n1 [Compound 50]
Barnyardgrass plant response rating ([1]; 16 g ai/ha): 0 | Barnyardgrass plant response rating ([1]; 31 g ai/ha): 0 | Plant response rating, Barnyardgrass ([1]; 62 g ai/ha): 0 | Plant response rating, Barnyardgrass ([1]; 125 g ai/ha): 0 | Galium plant response rating ([2]; 16 g ai/ha): 30 | Galium plant response rating ([2]; 31 g ai/ha): 15 | Plant response rating, Galium ([2]; 62 g ai/ha): 5 | Plant response rating, Galium ([2]; 125 g ai/ha): 60 | Ryegrass, Italian plant response rating [3, 24]: 0 | Ryegrass, Italian plant response rating [3, 17]: 0 | Plant response rating, Ryegrass, Italian [3, 18]: 0 | Plant response rating, Ryegrass, Italian [3, 19]: 0 | Foxtail, Giant plant response rating ([4]; 16 g ai/ha): 0 | Foxtail, Giant plant response rating ([4]; 31 g ai/ha): 0 | Plant response rating, Foxtail, Giant ([4]; 62 g ai/ha): 5 | Plant response rating, Foxtail, Giant ([4]; 125 g ai/ha): 35 | Ragweed plant response rating [5, 24]: 5 | Ragweed plant response rating [5, 17]: 5 | Plant response rating, Ragweed [5, 18]: 5 | Plant response rating, Ragweed [5, 19]: 15 | Corn plant response rating (corn (Zea mays) [6]; 16 g ai/ha): 0 | Corn plant response rating (corn (Zea mays) [6]; 31 g ai/ha): 0 | Plant response rating, Corn (corn (Zea mays) [6]; 62 g ai/ha): 0 | Plant response rating, Corn (corn (Zea mays) [6]; 125 g ai/ha): 5 | Lambsquarters plant response rating [7, 24]: 0 | Lambsquarters plant response rating [7, 17]: 5 | Plant response rating, Lambsquarters [7, 18]: 50 | Plant response rating, Lambsquarters [7, 19]: 5 | Blackgrass plant response rating ([8]; 16 g ai/ha): 0 | Blackgrass plant response rating ([8]; 31 g ai/ha): 0 | Plant response rating, Blackgrass ([8]; 62 g ai/ha): 0 | Plant response rating, Blackgrass ([8]; 125 g ai/ha): 0 | Waterhemp plant response rating [9, 24]: 0 | Waterhemp plant response rating [9, 17]: 0 | Plant response rating, Waterhemp [9, 18]: 0 | Plant response rating, Waterhemp [9, 19]: 40 | Pigweed plant response rating [10, 24]: 0 | Pigweed plant response rating [10, 17]: 5 | Plant response rating, Pigweed [10, 18]: 5 | Plant response rating, Pigweed [10, 19]: 30 | Morningglory plant response rating [11, 24]: 0 | Morningglory plant response rating [11, 17]: 0 | Plant response rating, Morningglory [11, 18]: 10 | Plant response rating, Morningglory [11, 19]: 20 | Plant response rating, Barnyardgrass [12, 21]: 0 | Plant response rating, Barnyardgrass [12, 25]: 0 | Plant response rating, Barnyardgrass [12, 26]: 0 | Plant response rating, Barnyardgrass [12, 27]: 10 | Plant response rating, Wheat [13, 21]: 0 | Plant response rating, Wheat [13, 25]: 20 | Plant response rating, Foxtail, Giant [14, 21]: 0 | Plant response rating, Foxtail, Giant [14, 25]: 10 | Plant response rating, Foxtail, Giant [14, 26]: 0 | Plant response rating, Foxtail, Giant [14, 27]: 50 | Plant response rating, Corn (corn (Zea mays) [15]; [21]): 0 | Plant response rating, Corn (corn (Zea mays) [15]; [25]): 0 | Plant response rating, Pigweed [16, 21]: 70 | Plant response rating, Pigweed [16, 25]: 100 | Plant response rating, Pigweed [16, 26]: 60 | Plant response rating, Pigweed [16, 27]: 100
